How the values were obtained:
[1] = C18-TLC assay (hydrophobicity); assay type: physicochemical; conditions: for spot migration in C18-TLC: regardless the percentage of the organic modifier in the mobile phase; for RM0 (TLC hydrophobicity index, intercept of linear equation): RP-18 TLC, PBS pH 7.4/methanol, extrapolated to zero organic modifier
Source text: In TLC measurements RF value depends on the chemical structure of analyte and its interaction with stationary and mobile phase. […] As it was expected, with increase in the percentage of organic modifier in the mobile phase the increase in RF values can be seen with accompanied decrease in RM values expressed as RM = log(1/RF - 1). Measured RF values were in the range from 0.1 to 0.7 obtained in a wide range of mobile phase organic modifier concentrations. […] Increasing concentration of the organic modifier in the mobile phase caused a slower decrease in the RM values for less hydrophobic analytes than for more hydrophobic ones. […] Increase in the hydrophobicity within curcuminoids and andrographolides is related to increase in lipophilicity determined by shake-flask method (Table 3). Stock solutions of analytes and calibration standards were prepared by dissolving 10 mg of each solute in 10 mL of methanol and kept at 4 °C. Working solutions were freshly prepared at the beginning of each day by dilution of the stock solutions to 100 μg/mL with methanol for TLC measurements or mobile phase for HPLC measurements. Before use, the samples were sonicated (Elmasonic […]) for 10 min at 25 °C and all working solutions were filtered through 0.2 μm polyethersulfone filters (Obrnuta faza). To protect analytes from photodegradation, the amber glass HPLC vials were used. Analyses were carried out using a commercially available 10 cm x 20 cm RP-18 TLC plates with fluorescent indicator (Merck KGaA). 5 μL of each working solution ([…]) was applied to the plates as 5 mm bends, 10 mm from the lower edge and 15 mm from sides of plates. The mobile phases were prepared by mixing the respective amounts of PBS (20 mM, pH 7.4) and methanol from 50% to 80% of organic solvent in 5% increment. The vertical flat-bottom chamber ([…], Switzerland) with a stainless-steel lid was saturated with mobile phase for 30 min. The plates were developed to a distance of 9 cm at room temperature, dried in the open air for 5 min and visualized under λ = 254 nm UV light (UV Cabinet with Dual Wavelength UV lamp by Camag).

[2] = IAM-HPLC assay (lipophilicity, affinity to phospholipids); assay type: physicochemical
Experimental: IAM columns provide potential to simulate membrane permeability since the amphiphilic character of phospholipid functional groups plays an important role in IAM retention especially when charged molecules are analysed.
(§1) Stock solutions of analytes and calibration standards were prepared by dissolving 10 mg of each solute in 10 mL of methanol and kept at 4 °C. Working solutions were freshly prepared at the beginning of each day by dilution of the stock solutions to 100 μg/mL with methanol for TLC measurements or mobile phase for HPLC measurements. Before use, the samples were sonicated (Elmasonic XtraTT, Elma Schmidbauer) for 10 min at 25 °C and all working solutions were filtered through 0.2 µm polyethersulfone filters (Obrnuta faza). To protect analytes from photodegradation, the amber glass HPLC vials were used.
C18-HPLC assay was carried out at Agilent HPLC 1100 and Zorbax SB C18 chromatographic column (length 250 mm.6 mm, particle size 5 µm) by Agilent Technologies, while IAM-HPLC assay was conducted using IAM P.C.DD2 chromatographic column (length 50 mm, i.d. 3.0 mm, particle size […]) by Regis Technologies (Morton Grove, IL, USA). Retention data were collected at 25.0 ± 0.1 °C using isocratic method working with mobile phases, mixing the respective amounts of PBS (10 mM, pH 7.4) and methanol from 35% to 80% of organic solvent in 5% increment. Each mobile phase was shaken vigorously and filtrated through membrane filter, no. 66, diameter 47 mm, pore size 0.45 µm by Supelco and degassed by sonication 5 min before use. The injection volume was set at 10 µL, and the measurements were carried out at flow rate 1.0 mL/min. Natrium nitrate solution (0.1 mg/mL in mobile phase) was used as the marker of dead-time. The absorbance of the analytes during a chromatographic run was collected in the spectral range of 200–400 nm, and the detection wavelength for each analyte was the one providing the maximum peak height.

[3] = target: T1, human serum albumin (HSA) (Homo sapiens, UniProt P02768); assay: HSA-HPAC assay (plasma protein binding); assay type: in vitro ADME; conditions: Chiralpak-HSA, pH 7.4, 25 °C; spread is RSD in %
T1 construct: purchased ChromTech (Cedex, France) Chiralpak-HSA
T1 sequence (P02768 25-609): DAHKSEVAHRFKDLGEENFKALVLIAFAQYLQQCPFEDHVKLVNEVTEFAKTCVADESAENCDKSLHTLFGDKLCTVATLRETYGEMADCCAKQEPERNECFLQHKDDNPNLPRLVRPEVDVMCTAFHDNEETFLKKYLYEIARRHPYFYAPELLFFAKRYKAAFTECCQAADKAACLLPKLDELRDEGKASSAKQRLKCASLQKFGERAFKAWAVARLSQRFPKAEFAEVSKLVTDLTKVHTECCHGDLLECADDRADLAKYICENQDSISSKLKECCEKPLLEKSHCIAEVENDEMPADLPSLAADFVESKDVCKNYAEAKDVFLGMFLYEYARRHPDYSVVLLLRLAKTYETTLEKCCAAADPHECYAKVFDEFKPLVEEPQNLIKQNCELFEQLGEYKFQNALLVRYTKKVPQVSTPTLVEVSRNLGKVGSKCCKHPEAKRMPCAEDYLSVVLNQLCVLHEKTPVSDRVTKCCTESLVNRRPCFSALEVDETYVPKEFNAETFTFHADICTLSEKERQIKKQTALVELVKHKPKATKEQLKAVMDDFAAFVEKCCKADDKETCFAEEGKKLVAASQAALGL
Source text: (§2) The gradient retention times obtained by HSA-HPAC and AGP-HPAC assays were standardized using a calibration set of compounds with known percentage of plasma protein binding data and procedure described in our previously published study. […] This verification assured that the protein affinity indices obtained by HPAC assays depict not only unspecific generally lipophilicity-driven interactions, but also highly specific recognition forces responsible of enantioselectivity.
as §1
(§3) The binding of biologically active compounds to the plasma proteins was investigated using affinity chromatographic columns by ChromTech (Cedex, France) containing immobilized human serum albumin (HSA) (Chiralpak-HSA, length 50 mm, i.d. 4.6 mm, particle size 5 µm) and α1-acid glycoprotein (AGP) (Chiralpak-AGP, length 50 mm, i.d. 4.6 mm, particle size 5 µm) and Agilent HPLC 1100 instrument. The 20 mM potassium phosphate buffer with the pH adjusted to 7.4 and iso-propanol were used as mobile phase components A and B. Retention data were collected at 25.0 ± 0.1 °C using gradient program as follows: 0 min/0% B, 6 min/30% B, 15 min/30% B and 20 min/0% B. Injection volume was set at 10 µL and the measurements were carried out at 25.0 ± 0.1 °C with flow rate of 1.5 mL/min. The absorbance of the analytes during a chromatographic run was collected in the spectral range 200–400 nm, and the detection wavelength for each analyte was the one providing the maximum peak height.

[4] = system: α1-acid glycoprotein (AGP); assay: AGP-HPAC assay (plasma protein binding); assay type: in vitro ADME; conditions: Chiralpak-AGP, pH 7.4, 25 °C; spread is RSD in %
Source text: as §2, §1, §3

[5] = Miniaturized shake-flask method (n-octanol/PBS pH 7.4) with HPLC analysis; assay type: physicochemical; conditions: n-octanol/PBS 20 mM pH 7.4, 25 °C; spread is RSD in %; read-out: log D7.4 ± RSD (%) (n = 3)
Experimental: Stock solution of biologically active ingredients of botanicals used in IBD treatment were prepared using dimethylsulfoxide in concentration of 2 mg/mL. Working solutions were prepared daily by dilution of the stock solutions with PBS (20 mM, pH 7.4) pre-saturated with n-octanol. Before the injection into the HPLC system all solutions were sonicated for 15 min at room temperature in Elmasonic XtraTT (Elma Schmidbauer, Singen, Germany) and filtered through 0.2 μm polyethersulfone filters (Obrnuta faza, Pazin, Croatia).
The pre-saturated solutions of n-octanol and PBS (20 mM, pH 7.4) were used for determination of logarithm of distribution coefficient (log D7.4). The n-octanol and aqueous phase (mixture 1:1, v/v) were mutually saturated for 24 h in an orbital shaker-incubator ES-20/60 (Biosan, Riga, Latvia) at 100 oscillations per min at 25.0 ± 0.1 °C. The prepared mixture was left resting for at least 12 h in the thermostat at 25.0 ± 0.1 °C to ensure complete separation of the two phases. Until analysis, separated saturated solutions were kept in refrigerator at 4 °C.
Shake-flask procedure was conducted in amber 2 mL HPLC vials. 300 μL of the working solution was added to 1500 μL of n-octanol pre-saturated with PBS. To prevent material loss due to volatilisation, the two-phase system nearly filled the entire volume of the test vessels. All n-octanol–buffer mixtures were first vortexed for 1 min and then shaken for 1 h (150 oscillations per min) at room temperature (25.0 ± 0.1 °C) to reach equilibrium and phase distribution. Afterward, the samples were centrifuged using a Z 326 K tabletop centrifuge (HERMLE Labortechnik, Wehingen, Germany) for 30 min at 4000× g and 25 °C to ensure that possible emulsions were removed.
After equilibration and phase separation, the aqueous phase of all samples was analysed on an Agilent HPLC 1100 (Agilent Technologies, Waldbronn, Germany) with diode array detection. Analysis was conducted with a Zorbax SB C18 column (length 150 mm, i.d. 4.6 mm, particle size 5 μm) by Agilent Technologies. 10 min chromatographic runs were performed at 25.0 ± 0.1 °C in isocratic mode using a methanol/water mixture (60/40, v/v) with addition of 0.1% of formic acid as mobile phase modifier at a flow rate of 1.0 mL/min. The mobile phase was filtered through a membrane filter, no. 66, diameter 47 mm, pore size 0.45 µm (Supelco, Bellefonte, PA, USA). The vials were placed in the rack on the autosampler at 25 °C. The injection volume was 10 µL, with a needle offset of 0.5 mm. To avoid any carryover of the analyte-containing n-octanol phase, the outside of the syringe was subsequently washed in methanol before injection. The absorbance of the analytes during a chromatographic run was collected in the spectral range 200–400 nm, and the detection wavelength for each analyte was the one providing the maximum peak height.

[6] = IAM P.C.DD2 column, PBS pH 7.4/methanol, extrapolated to zero organic modifier

Row | Compound | spot migration in C18-TLC [1] | logk0 IAM (HPLC lipophilicity index, intercept of linear equation) [2, 6] | HSA Binding ± RSD (%) (n = 3) [3] | AGP Binding ± RSD (%) (n = 3) [4] | logD at 1 h [5] | RM0 (TLC hydrophobicity index, intercept of linear equation) [1] | Δ RM0 (increase compared to 11-keto-β-boswellic acid) ([1]; compared to 11-keto-β-boswellic acid) [units] | logk0 IAM (HPLC lipophilicity index, intercept of linear equation) ([2]; pH 7.4)
1 | CC1(C)CCC2(C)CCC3(C)C(=CCC4C5(C)CCC(O)C(C)(C(=O)O)C5CCC43C)C2C1 (stereo not drawn) [α-Boswellic Acid, α-boswellic acid] | no spot migration was observed | y = −0.0788 x + 6.3109 | 98.94 ± 0.35 | 89.22 ± 0.30 |  |  |  | 
2 | COc1cc(/C=C/C(=O)CC(=O)/C=C/c2ccc(O)c(OC)c2)ccc1O [Curcumin, curcumin] |  |  | 97.52 ± 0.20 | 83.07 ± 1.10 | 1.94 |  |  | 
3 | CC(=O)O[C@@H]1CC[C@@]2(C)[C@@H](CC[C@]3(C)[C@@H]2C(=O)C=C2[C@@H]4[C@@H](C)[C@H](C)CC[C@]4(C)CC[C@]23C)[C@@]1(C)C(=O)O [3-Acetyl-11-keto-β-boswellic Acid, 3-acetyl-11-keto-β-boswellic acid] |  |  | 99.83 ± 0.47 | 83.10 ± 0.37 |  | y = −0.0722 x + 6.9059 | 1.53 | y = −0.0703 x + 5.1157
4 | C[C@H]1[C@H](C)CC[C@]2(C)CC[C@]3(C)C(=CC[C@@H]4[C@@]5(C)CC[C@@H](O)[C@](C)(C(=O)O)[C@@H]5CC[C@]43C)[C@H]12 [β-Boswellic Acid, β-boswellic acid] | no spot migration was observed |  | 99.79 ± 0.30 | 89.15 ± 2.04 |  |  |  | y = −0.0816 x + 6.5157
5 | CC1CCC2(C)CCC3(C)C(=CC(=O)C4C5(C)CCC(O)C(C)(C(=O)O)C5CCC43C)C2C1C (stereo not drawn) [11-Keto-β-boswellic Acid, 11-keto-β-boswellic acid] |  | y = −0.0570 x + 4.9194 | 98.09 ± 0.02 | 79.01 ± 0.20 |  | y = −0.0564 x + 5.3756 |  | 
